Test systems include T-47D breast; MDA-MB-231 breast; PC-3 prostate; DU-145 prostate; HS 578T breast.
Common to all, as to test: inhibition of tumour cell growth, NCI panel, 48 h

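Method: 48-hour compound exposure of cells in 96-well plates, five concentrations, linear interpolation of endpoints. GI50 is the concentration that inhibits growth by half. TGI: concentration producing complete growth inhibition.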

For the molecule `O=C(CCCCN1CCN(CCCCC(=O)Nc2ccccc2C#C/C=C\C#Cc2ccccc2C(F)(F)F)CC1)Nc1ccccc1C#C/C=C\C#Cc1ccccc1C(F)(F)F`, the GI50 in the assay with T-47D breast was 13.2 µM; in the assay on MDA-MB-231 breast, 6.23 µM; in the assay with PC-3 prostate it was 13.9 µM; in the assay with DU-145 prostate it was 17.4 µM; in the assay on HS 578T breast, 11.2 µM. In addition, the TGI is 29.2 µM in the assay on T-47D breast; 16 µM with MDA-MB-231 breast; above 50 µM with PC-3 prostate; above 50 µM in the assay on DU-145 prostate; 25.3 µM in the assay on HS 578T breast.

Take `COc1ccc(-c2cnc(-c3ccncc3-c3cccc(OC)c3)o2)cc1`: the GI50 in the assay with T-47D breast is 2.58 µM; with MDA-MB-231 breast, 0.0591 µM; in the assay on PC-3 prostate, 0.0379 µM; in the assay with DU-145 prostate it was 0.0408 µM; with HS 578T breast, 0.0354 µM. Moreover, the TGI was found to be 35.1 µM in the assay on T-47D breast; 19.3 µM with MDA-MB-231 breast; 16.9 µM with PC-3 prostate; 12.9 µM with DU-145 prostate; 20.2 µM with HS 578T breast.

Regarding `Cc1cc(OC2OC(CO)C(O)C(O)C2O)ccc1O` (configuration not stated), the TGI in the assay on T-47D breast, in the assay on MDA-MB-231 breast, with PC-3 prostate and with HS 578T breast was above 100 µM each time.

Regarding `CCN1C(=O)N(CC)C2C1NC(=S)N2/N=C/C=C/c1ccccc1` (configuration not stated), the GI50 with T-47D breast is 21.5 µM; in the assay on MDA-MB-231 breast, 0.376 µM; in the assay with PC-3 prostate it was 0.0734 µM; in the assay on DU-145 prostate, 0.377 µM; with HS 578T breast, 0.0824 µM. In addition, the TGI with T-47D breast was above 100 µM; in the assay on MDA-MB-231 breast, above 28.1 µM; in the assay on PC-3 prostate it was above 100 µM; in the assay on DU-145 prostate, above 100 µM; in the assay on HS 578T breast, above 100 µM.

On to `CN(C)CCNC(=O)Nc1ccc(N(C)c2ccnc(Nc3ccc(CS(C)(=O)=O)cc3)n2)cc1`, for which the GI50 in the assay on T-47D breast was above 25 µM; with MDA-MB-231 breast, above 25 µM; in the assay on PC-3 prostate it was above 25 µM; in the assay with DU-145 prostate, above 25 µM; in the assay with HS 578T breast, above 19.8 µM. Also, the TGI with T-47D breast, with MDA-MB-231 breast, in the assay on PC-3 prostate, in the assay with DU-145 prostate and with HS 578T breast was above 25 µM in each case.

On to `COC(=O)[C@]12CC[C@@H](C)[C@H](C)[C@@H]1C1=CC[C@@H]3[C@@]4(C)C(C=O)=C[C@@](C)(COS(C)(=O)=O)C4=CC[C@@]3(C)[C@]1(C)CC2`, for which the GI50 was 0.158 µM with T-47D breast, 0.232 µM with MDA-MB-231 breast, 0.317 µM in the assay on DU-145 prostate and 0.234 µM in the assay on HS 578T breast. Further, the TGI in the assay on T-47D breast is 0.47 µM; in the assay with MDA-MB-231 breast, 0.578 µM; in the assay on DU-145 prostate, 1.06 µM; with HS 578T breast it was 0.711 µM.

Regarding `Nc1ncnc2c1c(-c1ccc(Oc3ccccc3)cc1)nn2CC1SSCC1O` (configuration not stated), the GI50 with T-47D breast is 0.653 µM; in the assay on MDA-MB-231 breast, 5.36 µM; with PC-3 prostate, 6.23 µM; in the assay on DU-145 prostate, 4.15 µM; with HS 578T breast, 5.84 µM. Moreover, the TGI was 1.85 µM in the assay on T-47D breast; 16.8 µM in the assay on MDA-MB-231 breast; 14.9 µM with PC-3 prostate; 9.01 µM in the assay on DU-145 prostate; 19.3 µM in the assay with HS 578T breast.

In the case of `C[C@]12CCc3nc(Nc4ccc(O)cc4)sc3C1=CC[C@@H]1[C@@H]2CC[C@]2(C)/C(=N/NC(N)=S)CC[C@@H]12`, the GI50 is 1.51 µM with T-47D breast; 1.88 µM in the assay on MDA-MB-231 breast; 1.58 µM in the assay with PC-3 prostate; 1.64 µM in the assay on DU-145 prostate; 1.75 µM in the assay on HS 578T breast. The TGI amounted to 3.57 µM in the assay with T-47D breast; 4.79 µM with MDA-MB-231 breast; 5.28 µM in the assay with PC-3 prostate; 3.15 µM with DU-145 prostate; 6.36 µM with HS 578T breast.

As to `CCOC(=O)c1cc(C(=O)c2ccc(OC)c(OC)c2)n2c1ccc1ccc3cccnc3c12`, the GI50 is 2.37 µM with T-47D breast; 2.66 µM in the assay with MDA-MB-231 breast; 0.96 µM in the assay with PC-3 prostate; 3.45 µM in the assay with DU-145 prostate; 3.04 µM in the assay on HS 578T breast. The TGI in the assay with T-47D breast, in the assay on MDA-MB-231 breast, in the assay on PC-3 prostate, in the assay with DU-145 prostate and with HS 578T breast was above 100 µM throughout.

Regarding `Cn1cc(-c2ccc3ncc(-c4ccc(CC(=O)Nc5cc(C(C)(C)C)nn5C)cc4)cc3c2)cn1`, the GI50 with T-47D breast is 0.617 µM; in the assay on MDA-MB-231 breast, 2.37 µM; with PC-3 prostate, 0.961 µM; in the assay on DU-145 prostate, 1.1 µM; with HS 578T breast it was 0.798 µM. In addition, the TGI was 5.91 µM in the assay with T-47D breast; above 20 µM in the assay with MDA-MB-231 breast; above 20 µM in the assay with PC-3 prostate; above 20 µM in the assay on DU-145 prostate; above 20 µM with HS 578T breast.

As for `Oc1cn(-c2ccc(Cl)cc2)nc1-c1n[nH]c(=S)n1-c1ccc(F)cc1`, the GI50 is above 100 µM with T-47D breast; 10.2 µM with MDA-MB-231 breast; 14.8 µM in the assay with PC-3 prostate; 22 µM with DU-145 prostate; 29.1 µM in the assay on HS 578T breast. For the same molecule, the TGI with T-47D breast was above 100 µM; with MDA-MB-231 breast, 60.1 µM; with PC-3 prostate it was above 100 µM; in the assay with DU-145 prostate it was above 100 µM; in the assay with HS 578T breast it was above 100 µM.

In the case of `O=C(Nc1ccc(-n2cc(-c3ccncc3)c(-c3ccc(Cl)c(O)c3)n2)cc1)c1cc(C(F)(F)F)cc(C(F)(F)F)c1`, the GI50 is 2.16 µM with T-47D breast; 3.29 µM in the assay on MDA-MB-231 breast; 3.29 µM with PC-3 prostate; 12.3 µM in the assay on DU-145 prostate; 5.32 µM in the assay with HS 578T breast. Also, the TGI with T-47D breast was 9.35 µM; with MDA-MB-231 breast, 21.6 µM; in the assay with PC-3 prostate, 28.5 µM; in the assay on DU-145 prostate it was 54.7 µM; with HS 578T breast, above 100 µM.

Regarding `Cc1ccc(C(=O)Nc2ccc(Oc3cc4cnn(C)c4cc3-c3cn[nH]c3)c(F)c2)c(=O)n1-c1ccc(F)cc1`, the GI50 was 7.28 µM with T-47D breast; 10.2 µM in the assay with MDA-MB-231 breast; 16.3 µM in the assay with PC-3 prostate; above 50 µM in the assay with DU-145 prostate; 7.35 µM in the assay with HS 578T breast. Moreover, the TGI was above 78.8 µM in the assay with T-47D breast; above 78.1 µM in the assay on MDA-MB-231 breast; above 100 µM in the assay with PC-3 prostate; above 100 µM with DU-145 prostate; above 100 µM with HS 578T breast.

Values taken from PubChem BioAssay (NCI).
